pIC50: −log10 of the molar value. Like-named read-outs stand apart in the source and are kept apart here.
Biological target: TBK1 (Homo sapiens (Human), UniProt Q9UHD2)
Assay: TBK1 low ATP kinase assay (in vitro assay 1)
Type: biochemical
[1] = in vitro assay 1, read-out: TBK1 low ATP kinase assay IC50

TBK1, sequence (Q9UHD2 whole entry): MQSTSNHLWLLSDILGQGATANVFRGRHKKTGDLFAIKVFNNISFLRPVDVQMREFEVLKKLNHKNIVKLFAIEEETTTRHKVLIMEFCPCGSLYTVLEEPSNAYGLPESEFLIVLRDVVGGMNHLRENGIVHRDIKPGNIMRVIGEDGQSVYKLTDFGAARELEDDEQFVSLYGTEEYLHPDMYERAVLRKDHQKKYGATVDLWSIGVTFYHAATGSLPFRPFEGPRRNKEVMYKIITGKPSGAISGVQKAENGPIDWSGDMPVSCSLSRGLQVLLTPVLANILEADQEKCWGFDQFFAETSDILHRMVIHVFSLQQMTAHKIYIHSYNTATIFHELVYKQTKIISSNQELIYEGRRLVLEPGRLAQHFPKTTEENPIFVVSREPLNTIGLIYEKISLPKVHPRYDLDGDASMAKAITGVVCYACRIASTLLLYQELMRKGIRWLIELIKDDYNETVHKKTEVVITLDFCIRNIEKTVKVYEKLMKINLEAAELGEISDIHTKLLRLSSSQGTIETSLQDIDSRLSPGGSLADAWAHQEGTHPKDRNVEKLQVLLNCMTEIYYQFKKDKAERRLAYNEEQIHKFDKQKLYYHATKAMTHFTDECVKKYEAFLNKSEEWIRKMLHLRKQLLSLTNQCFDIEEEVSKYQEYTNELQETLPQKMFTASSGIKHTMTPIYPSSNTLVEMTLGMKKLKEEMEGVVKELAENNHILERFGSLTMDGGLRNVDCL

| Molecule | pIC50 [1] | pIC50 (TBK1 low ATP kinase assay IC50, in vitro assay 1) |
| --- | --- | --- |
| CCOc1nccc(-c2ccc3nc(Nc4cc(CN5CCN(C(=O)OC(C)(C)C)CC5)ccn4)[nH]c3c2)n1 [Example 26.01.01, tert-butyl 4-[(2-{[6-(2-ethoxypyrimidin-4-yl)-1H-benzimidazol-2-yl]amino}pyridin-4-yl)methyl]piperazine-1-carboxylate] | 7.45 |  |
| O=C(CC(F)(F)F)N1CCN(Cc2ccnc(Nc3nc4ccc(-c5cc(N6CCCCC6)ncn5)cc4[nH]3)c2)CC1 [Example 145.02, 3,3,3-trifluoro-1-(4-{[2-({6-[6-(piperidin-1-yl)pyrimidin-4-yl]-1H-benzimidazol-2-yl}amino)pyridin-4-yl]methyl}piperazin-1-yl)propan-1-one] | 8.54 |  |
| COc1cncnc1-c1ccc2nc(Nc3cc(C(C)N4CCN(C(=O)C5CC5)CC4)ccn3)[nH]c2c1 (racemic) [Example 35.02.03, (rac)-cyclopropyl{4-[1-(2-{[6-(5-methoxypyrimidin-4-yl)-1H-benzimidazol-2-yl]amino}pyridin-4-yl)ethyl]piperazin-1-yl}methanone] | 8.20 |  |
| 1-(4-{(1R or 1S)-1-[2-({6-[1-(cyclopentylmethyl)-1H-pyrazol-4-yl]-1H-benzimidazol-2-yl}amino)pyridin-4-yl]ethyl}piperazin-1-yl)-3,3,3-trifluoropropan-1-one [Example 71.02] | 8.15 |  |
| CCc1nccc(-c2ccc3nc(Nc4cc(CN5CCN(C(=O)OC(C)(C)C)CC5)ccn4)[nH]c3c2)n1 [Example 28.01, tert-butyl 4-[(2-{[6-(2-ethylpyrimidin-4-yl)-1H-benzimidazol-2-yl]amino}pyridin-4-yl)methyl]piperazine-1-carboxylate] | 6.95 |  |
| CC(c1ccnc(Nc2nc3ccc(-c4ccnn4C)cc3[nH]2)c1)N1CCN(C(=O)OC(C)(C)C)CC1 (single isomer, unassigned) [Example 123.01, tert-butyl 4-[(1R or 1S)-1-(2-{[6-(1-methyl-1H-pyrazol-5-yl)-1H-benzimidazol-2-yl]amino}pyridin-4-yl)ethyl]piperazine-1-carboxylate] | 7.44 |  |
| CC(c1ccnc(Nc2nc3ccc(-c4cc(OCC5CC5)ncn4)cc3[nH]2)c1)N1CCN(C(=O)CC(F)(F)F)CC1 (single isomer, unassigned) [Example 85.03, 1-(4-{(1R or 1S)-1-[2-({6-[6-(cyclopropylmethoxy)pyrimidin-4-yl]-1H-benzimidazol-2-yl}amino)pyridin-4-yl]ethyl}piperazin-1-yl)-3,3,3-trifluoropropan-1-one] |  | 8.74 |
| CN(C)c1cnc(-c2ccc3nc(Nc4cc(CN5CCN(C(=O)OC(C)(C)C)CC5)ccn4)[nH]c3c2)cn1 [Example 144.01, tert-butyl 4-{[2-({6-[5-(dimethylamino)pyrazin-2-yl]-1H-benzimidazol-2-yl}amino)pyridin-4-yl]methyl}piperazine-1-carboxylate] | 6.29 |  |
| Cc1ncc(C)c(-c2ccc3nc(Nc4cc(CN5CCN(C(=O)C6CCC6)CC5)ccn4)[nH]c3c2)n1 [Example 33.04, cyclobutyl{4-[(2-{[6-(2,5-dimethylpyrimidin-4-yl)-1H-benzimidazol-2-yl]amino}pyridin-4-yl)methyl]piperazin-1-yl}methanone] | 5.67 |  |
| CCC(=O)N1CCN(Cc2ccnc(Nc3nc4ccc(-c5nc(C)no5)cc4[nH]3)c2)CC1 [Example 101.28, 1-{4-[(2-{[6-(3-methyl-1,2,4-oxadiazol-5-yl)-1H-benzimidazol-2-yl]amino}pyridin-4-yl)methyl]piperazin-1-yl}propan-1-one] | 6.68 |  |
| COc1cc(-c2ccc3nc(Nc4cc(C(C)N5CCN(C(=O)CC(F)(F)F)CC5)ccn4)[nH]c3c2)ncn1 (racemic) [Example 34.02.01, (rac)-3,3,3-trifluoro-1-{4-[1-(2-{[6-(6-methoxypyrimidin-4-yl)-1H-benzimidazol-2-yl]amino}pyridin-4-yl)ethyl]piperazin-1-yl}propan-1-one] | 7.91 |  |
| Cc1cc(-c2ccc3nc(Nc4cc(CN5CCN(C(=O)CC(F)(F)F)CC5)ccn4)[nH]c3c2)c(F)cn1 [Example 131.02, 3,3,3-trifluoro-1-{4-[(2-{[6-(5-fluoro-2-methylpyridin-4-yl)-1H-benzimidazol-2-yl]amino}pyridin-4-yl)methyl]piperazin-1-yl}propan-1-one] | 7.21 |  |
| Clc1ccccc1N1CCN(Cc2ccnc(Nc3nc4ccc(-c5nc(C6CC6)no5)cc4[nH]3)c2)CC1 [Example 17.07, N-(4-{[4-(2-chlorophenyl)piperazin-1-yl]methyl}pyridin-2-yl)-6-(3-cyclopropyl-1,2,4-oxadiazol-5-yl)-1H-benzimidazol-2-amine] | 6.99 |  |
| COc1cc(-c2ccc3nc(Nc4cc(C(C)N5CCN(C(=O)CC(F)(F)F)CC5)ccn4)[nH]c3c2)ncn1 (single isomer, unassigned) [Example 34.03.01.A, 3,3,3-trifluoro-1-{4-[(1R or 1S)-1-(2-{[6-(6-methoxypyrimidin-4-yl)-1H-benzimidazol-2-yl]amino}pyridin-4-yl)ethyl]piperazin-1-yl}propan-1-one] | 7.92 |  |
| CC(c1ccnc(Nc2nc3ccc(-c4cnn(CC5CC5)c4)cc3[nH]2)c1)N1CCN(C(=O)OC(C)(C)C)CC1 (single isomer, unassigned) [Example 39.02.01, tert-butyl 4-{(1R or 1S)-1-[2-({6-[1-(cyclopropylmethyl)-1H-pyrazol-4-yl]-1H-benzimidazol-2-yl}amino)pyridin-4-yl]ethyl}piperazine-1-carboxylate] | 8.06 |  |
| CN(C)c1cnc(-c2ccc3nc(Nc4cc(CN5CCN(C(=O)CC(F)(F)F)CC5)ccn4)[nH]c3c2)cn1 [Example 144.02, 1-(4-{[2-({6-[5-(dimethylamino)pyrazin-2-yl]-1H-benzimidazol-2-yl}amino)pyridin-4-yl]methyl}piperazin-1-yl)-3,3,3-trifluoropropan-1-one] | 6.46 |  |
| Cc1nccc(-c2ccc3nc(Nc4cc(C(C)N5CCN(C(=O)C6CCC6)CC5)ccn4)[nH]c3c2)n1 (racemic) [Example 24.04.02, (rac)-cyclobutyl{4-[1-(2-{[6-(2-methylpyrimidin-4-yl)-1H-benzimidazol-2-yl]amino}pyridin-4-yl)ethyl]piperazin-1-yl}methanone] | 7.79 |  |
| Cc1cc(CN2CCN(C(=O)CC(F)(F)F)CC2)cc(Nc2nc3ccc(-c4ccncn4)cc3[nH]2)n1 [Example 23.02.01, 3,3,3-trifluoro-1-{4-[(2-methyl-6-{[6-(pyrimidin-4-yl)-1H-benzimidazol-2-yl]amino}pyridin-4-yl)methyl]piperazin-1-yl}propan-1-one] | 7.69 |  |
| Cn1ccc(-c2ccc3nc(Nc4cc(CN5CCN(C(=O)C6CC6)CC5)ccn4)[nH]c3c2)n1 [Example 40.03, cyclopropyl{4-[(2-{[6-(1-methyl-1H-pyrazol-3-yl)-1H-benzimidazol-2-yl]amino}pyridin-4-yl)methyl]piperazin-1-yl}methanone] | 6.01 |  |
| Cc1nccc(-c2ccc3nc(Nc4cc(CN5CCN(C(=O)CC6CC6)CC5)ccn4)[nH]c3c2)n1 [Example 24.01.04, 2-cyclopropyl-1-{4-[(2-{[6-(2-methylpyrimidin-4-yl)-1H-benzimidazol-2-yl]amino}pyridin-4-yl)methyl]piperazin-1-yl}ethanone] | 7.35 |  |
